Patent US20250057751A1, “PEPTIDE HAVING ACTIVITY OF IMPROVING STATE OF SKIN, AND USE THEREOF” (CAREGEN CO., LTD., priority 2021, published 2025)

Key:
NIH3T3 cells [1] = assay: Antioxidant effect on skin cells induced by ultraviolet rays (reactive oxygen species, flow cytometry); type: cell-based, mouse; details: 6 J/cm2 ultraviolet rays, 50 μM or 100 μM peptide, 24 hours, FIG. 7A
Method: (§1) In this example, the aim was to confirm the effect of the peptide according to an embodiment on the antioxidant effect of skin cells induced by ultraviolet rays, by evaluating the level of reactive oxygen species in skin cells increased by ultraviolet irradiation.
(§2) Specifically, NIH3T3 cells or HaCaT cells were seeded in a 6-well plate at a density of 5×10^5 cells/well and cultured for 24 hours. The cells were then washed once with serum-free DMEM media, the culture medium was replaced with serum-free DMEM media, and 50 μM or 100 μM of the peptide consisting of the amino acid sequence of SEQ ID NO: 1 was dispensed to the culture medium. The culture medium dispensed with the peptide was cultured in a CO2 incubator at 37° C. for 1 hour, transferred to an e-tube, mixed with 100 ul of PBS, and dispensed into a well plate. Afterwards, using a UV irradiator (VILBER LOURMAT, France), 6 J/cm2 ultraviolet rays were irradiated to NIH3T3 cells, and 15m J/cm2 ultraviolet rays were irradiated to HaCaT cells. The PBS in the well plate was then removed, 900 μL of the culture medium in which the peptides were dispensed was added, and the plate was cultured in a CO2 incubator at 37° C. for 24 hours. […] After washing the centrifuged cells with PBS, FL1 fluorescence values were measured through flow cytometry (FACS, BD, USA). […]

HaCaT cells [2] = assay: Proliferation promoting effect on skin cells (SRB staining, absorbance at 560 nm); type: cell-based, human; details: 50 μM or 100 μM peptide, 72 hours, serum-free DMEM, FIG. 1B
Method: (§3) In this example, the aim was to confirm the effect of a peptide according to an example on proliferation of skin cells, by evaluating changes in survival rate of NIH3T3 cells, which are mouse fibroblasts, or HaCaT cells, which are human keratinocytes.
(§4) Specifically, NIH3T3 cells or HaCaT cells were seeded in a 96-well plate at a density of 5×10^3 cells/well and cultured for 24 hours. The cells were then washed once with serum-free DMEM media, and the culture medium was replaced with serum-free DMEM media. Then, 50 μM or 100 μM of the peptide consisting of the amino acid sequence of SEQ ID NO: 1 was dispensed into the medium, and cultured in a CO2 incubator at 37° C. for 72 hours. The culture was then washed twice with PBS and treated with 4% paraformaldehyde (PFA) solution for 15 minutes to fix the cultured cells. The culture was then washed twice with distilled water, treated with SRB solution for 1 hour to stain the cells, washed with 1% acetic acid solution, and dried. The dried culture was then dissolved in 20 mM Tris buffer solution and the absorbance at 560 nm was measured using a microplate reader (Molecular Devices, USA). In this example, the untreated group was used as the control group, and the group to which insulin-like growth factor was added (IGF) was used as the positive control group.

NIH3T3 cells [3] = assay: Inhibitory effect on apoptosis of skin cells induced by ultraviolet rays (survival rate, SRB); type: cell-based, mouse; details: 6 J/cm2 ultraviolet rays, 50 μM or 100 μM peptide, 72 hours, FIG. 6A
Method: (§5) In this example, the aim was to confirm the effect of the peptide according to an example on the inhibition of apoptosis or cell recovery of skin cells induced by ultraviolet rays, by evaluating the change in survival rate of skin cells whose apoptosis was induced by ultraviolet irradiation.
(§6) Specifically, NIH3T3 cells or HaCaT cells were seeded in a 96-well plate at a density of 1×10^4 cells/well and cultured for 24 hours. The cells were then washed once with serum-free DMEM media, the culture medium was replaced with serum-free DMEM media, and 50 μM or 100 μM of the peptide consisting of the amino acid sequence of SEQ ID NO: 1 was dispensed to the culture medium. The culture medium dispensed with the peptide was cultured in a CO2 incubator at 37° C. for 1 hour, transferred to an e-tube, mixed with 100 ul of PBS, and dispensed into a well plate. Afterwards, using a UV irradiator (VILBER LOURMAT, France), 6 J/cm2 ultraviolet rays were irradiated to NIH3T3 cells, and 15m J/cm2 ultraviolet rays were irradiated to HaCaT cells. The PBS in the well plate was then removed, 900 μL of the culture medium in which the peptides were dispensed was added, and the plate was cultured in a CO2 incubator at 37° C. for 72 hours. […] The dried culture was then dissolved in 20 mM Tris buffer solution and the absorbance at 560 nm was measured using a microplate reader (Molecular Devices, USA). […]

NIH3T3 cells [4] = assay: Proliferation promoting effect on skin cells (SRB staining, absorbance at 560 nm); type: cell-based, mouse; details: 50 μM or 100 μM peptide, 72 hours, serum-free DMEM, FIG. 1A
Method: as §3, §4

HaCaT cells [5] = assay: Inhibitory effect on apoptosis of skin cells induced by ultraviolet rays (survival rate, SRB); type: cell-based, human; details: 15m J/cm2 ultraviolet rays, 50 μM or 100 μM peptide, 72 hours, FIG. 6B
Method: as §5, §6

aquaporin-3 (AQP3) = assay: Expression of skin barrier factor in HaCaT cells (RT-PCR); type: cell-based, human; details: 50 μM or 100 μM peptide, 24 hours, FIG. 4, FIG. 5B
Method: (§7) In this example, the aim was to confirm the effect of the peptides according to an example on skin barrier defense, by evaluating the expression levels of sirtuin-1 (SIRT-1) or aquaporin-3 (AQP3).
(§8) Specifically, HaCaT cells were seeded in a 6-well plate at a density of 3×10^5 cells/well and cultured for 24 hours. The cells were then washed once with serum-free DMEM media, and the culture medium was replaced with serum-free DMEM media. Thereafter, 50 μM or 100 μM of the peptide consisting of the amino acid sequence of SEQ ID NO: 1 was dispensed into the medium, and cultured in a CO2 incubator at 37° C. for 24 hours. The culture was then washed twice with PBS, and RNA was isolated from the culture using easy blue (iNtRON, Korea). Using the RT kit (Enzynomics, Korea), 1 ug of the isolated RNA was reverse transcribed to synthesize the respective cDNA. Polymerase chain reaction was then performed using the cDNAs and primers sirtuin-1and aquaporin-3. Meanwhile, the untreated group was used as the control group, and the group to which EGF was added (EGF) was used as the positive control group, the nucleotide sequences of the primers used in this example are shown in Table 3 below.

sirtuin-1 (SIRT-1) = assay: as above; type: cell-based, human; details: 50 μM or 100 μM peptide, 24 hours, FIG. 4, FIG. 5A
Method: as §7, §8

fibronectin = assay: Expression of extracellular matrix constituent factor in NIH3T3 cells (RT-PCR); type: cell-based, mouse; details: 50 μM or 100 μM peptide, 24 hours, FIG. 2, FIG. 3B
Method: (§9) In this example, the aim was to confirm the effect of the peptide according to an example on improving endogenous skin aging, including improvement of wrinkles and enhancement of elasticity, etc., by evaluating the expression levels of collagen type 1 (Col1a1), fibronectin, or elastin, which are known components of the dermis.
(§10) Specifically, NIH3T3 cells were seeded in a 6-well plate at a density of 3×10^5 cells/well and cultured for 24 hours. The cells were then washed once with serum-free DMEM media, and the culture medium was replaced with serum-free DMEM media. Thereafter, 50 μM or 100 μM of the peptide consisting of the amino acid sequence of SEQ ID NO: 1 was dispensed into the medium, and cultured in a CO2 incubator at 37° C. for 24 hours. The culture was then washed twice with PBS, and RNA was isolated from the culture using easy blue (iNtRON, Korea). Using an RT kit (Enzynomics, Korea), 1 μg of the isolated RNA was reverse transcribed to synthesize the respective cDNA. Polymerase chain reaction (PCR) was then performed using the cDNAs and primers Col1a1, fibronectin, and elastin. Meanwhile, the untreated group was used as the control group, and the group to which TGF-β1 was added (TGF-β1) was used as the positive control group, the nucleotide sequences of the primers used in this example are shown in Table 2 below.

elastin = assay: as above; type: cell-based, mouse; details: 50 μM or 100 μM peptide, 24 hours, FIG. 2, FIG. 3C
Method: as §9, §10

collagen type 1 (Col1a1) = assay: as above; type: cell-based, mouse; details: 50 μM or 100 μM peptide, 24 hours, FIG. 2, FIG. 3A
Method: as §9, §10

HaCaT cells [6] = assay: Antioxidant effect on skin cells induced by ultraviolet rays (reactive oxygen species, flow cytometry); type: cell-based, human; details: 15m J/cm2 ultraviolet rays, 50 μM or 100 μM peptide, 24 hours, FIG. 7B
Method: as §1, §2

Sequence: IHGTYKELLDTVTAP (Peptide 1) [SEQ ID NO: 1]
- level of reactive oxygen species in fibroblasts increased by ultraviolet irradiation (NIH3T3 cells [1]): reduced
- proliferation of keratinocytes (HaCaT cells [2]): promoted
- cell survival rate of fibroblasts reduced by ultraviolet irradiation (NIH3T3 cells [3]): restored
- proliferation of fibroblasts (NIH3T3 cells [4]): promoted
- cell survival rate of keratinocytes reduced by ultraviolet irradiation (HaCaT cells [5]): restored
- expression of AQP3 (aquaporin-3 (AQP3)): increased
- expression of SIRT-1 (sirtuin-1 (SIRT-1)): increased
- expression of fibronectin (fibronectin): increased
- expression of elastin (elastin): increased
- expression of Col1a1 (collagen type 1 (Col1a1)): increased
- level of reactive oxygen species in keratinocytes increased by ultraviolet irradiation (HaCaT cells [6]): reduced
